Reference: patent US4323547A, “Labeled fatty acids and method of making and using same” (priority 1978, dated 1982)

Key:
[1] = tested on: heart muscle; assay: Heart muscle uptake and elimination of radiolabelled fatty acids after tail vein injection in mice; format: in vivo, NMRI mice
Protocol: (§1) Animal experiments with mice were carried out using the product resulting from the high pressure liquid chromatographic purification after evaporation of the eluate to dryness in a rotary evaporator and the dissolution of the product in human serum albumin. The solution is filtered and injected in aliquot portions to the tail vein of each animal.
(§2) The following table assembles the results of comparative tests with the compounds of the invention and prior art compounds: […]

[2] = as above; format: in vivo, NMRI mice; details: mouse, in vivo, iv; for tissue uptake at 2 min: NMRI mice, tail vein injection in human serum albumin, read-out: maximum 18F activity in the heart muscle
Protocol: as §1, §2

[3] = comparative tests, table 2, heart
[4] = NMRI mice, tail vein injection in human serum albumin

Elimination Half-time, rapid elimination ([1]; mouse, in vivo, iv) [min]	Max. Enrichment in % of Injected Dose per Heart ([1]; mouse, in vivo)	Elimination Half-time, slow elimination ([1]; mouse, in vivo, iv) [min]	Time to Max. Enrichment ([1]; mouse, in vivo, iv) [min]	Molecule	Max. Enrichment in % of Injected Dose per Heart ([1]; comparative tests, table 2)	Elimination Half-time, slow elimination [1, 3] [min]	Time to Max. Enrichment [1, 3] [min]	Elimination Half-time, rapid elimination [1, 3] [min]	dropoff of heart activity, long-duration component [1, 4]	dropoff of heart activity, short-duration component [1, 4]	time within which the activity reaches a maximum in heart muscle [1, 4]	tissue uptake at 2 min [2] [%ID/g]	maximum 18F activity in the heart muscle ([1]; NMRI mice, tail vein injection in human serum albumin, 2 min)	tissue uptake ([2]; general description, read-out: maximum pickup in heart muscle) [%ID/g]
2.4 ± 0.5	3.36 ± 0.4 % of Injected Dose per Heart	33 ± 6.6	0.5	O=C(O)CCCCCCCCCCCCCCC[123I] [16-^123 I-Palmitic acid]										
2 ± 0.4	1.411 ± 0.1 % of Injected Dose per Heart	13 ± 2.7	0.5 to 1	CCCCCCCCCCCCCCCCC([123I])C(=O)O (stereo not shown) [2-^123 I-Stearic acid]										
1 ± 0.2	1.47 ± 0.3 % of Injected Dose per Heart	18 ± 3.6	1	CCCCCCCCCCCCCCCCC([77Br])C(=O)O (stereo not shown) [2-^77 Br-Stearic acid]										
0.6 ± 0.1	2.210 ± 0.6 % of Injected Dose per Heart	36 ± 7.2	0.5	O=C(O)CCCCCCCCCCCCCCCC[77Br] [17-^77 Br-Heptadecanoic acid]										
2.1 ± 0.4	3.97 ± 0.4 % of Injected Dose per Heart	25 ± 5.0	0.25	O=C(O)CCCCCCCCCCCCCCCC[123I] [17-^123 I-Heptadecanoic acid]										

More lines, now with the values behind:

Molecule	Elimination Half-time, rapid elimination ([1]; mouse, in vivo, iv) [min]	Max. Enrichment in % of Injected Dose per Heart ([1]; mouse, in vivo)	Elimination Half-time, slow elimination ([1]; mouse, in vivo, iv) [min]	Time to Max. Enrichment ([1]; mouse, in vivo, iv) [min]	Max. Enrichment in % of Injected Dose per Heart ([1]; comparative tests, table 2)	Elimination Half-time, slow elimination [1, 3] [min]	Time to Max. Enrichment [1, 3] [min]	Elimination Half-time, rapid elimination [1, 3] [min]	dropoff of heart activity, long-duration component [1, 4]	dropoff of heart activity, short-duration component [1, 4]	time within which the activity reaches a maximum in heart muscle [1, 4]	tissue uptake at 2 min [2] [%ID/g]	maximum 18F activity in the heart muscle ([1]; NMRI mice, tail vein injection in human serum albumin, 2 min)	tissue uptake ([2]; general description, read-out: maximum pickup in heart muscle) [%ID/g]
CCCCCCCCCCCCCCC[11C](=O)O [1-[^11 C] Palmitic acid]	0.4 ± 0.1				3.87 ± 1.0 % of Injected Dose per Heart	33 ± 6.5	0.25							
CCCCCCCCCCCCCCCCC([18F])C(=O)O (stereo not shown) [2-^18 F-Stearic acid]					1.34 ± 0.1 % of Injected Dose per Heart	5 ± 1.5	1	0.5 ± 0.1						
O=C(O)CCCCCCCCCCCCCCC[18F] [16-^18 F-Palmitic acid, 16-^18 F hexadecanoic acid]					4.35 ± 1.3 % of Injected Dose per Heart	44 ± 11	0.25	3 ± 0.8	eighteen to fifty-one	two to six	two	~40		
(9/10)-^18 F-stearic acid [9/10-^18 F-Stearic acid]					4.25 ± 0.9 % of Injected Dose per Heart	24 ± 7	0.5	4 ± 1	eighteen to fifty-one	two to six	two		about 40 % gram (heart)	
O=C(O)CCCCCCCCCCCCCCCC[34Cl] [17-^34m Cl-Heptadecanoic acid]					2.16 ± 0.6 % of Injected Dose per Heart	23 ± 4.7	0.25	0.9 ± 0.2						
CCCCCCCCCCCCCCCCC([34Cl])C(=O)O (stereo not shown) [2-^34m Cl-Stearic acid]	0.9 ± 0.2	2.03 ± 0.1 % of Injected Dose per Heart	9 ± 1.8	1										
O=C(O)CCCCCCCCCCCCCCCC[18F] [17-^18 F-Heptadecanoic acid]					4.812 ± 0.8 % of Injected Dose per Heart	18 ± 6	0.5	6 ± 1.5	eighteen to fifty-one	two to six	two	~40		~40
